Earlier results in patent publication US20260024640A1, “SYSTEM AND METHOD I[…] COMPUTER FOR THE CONTROL OF […] THROUGH FUZZY CONTROL” (SmartTIVA Inc, priority 2022, published 2026).
Where two headings read alike, the source gives them in different places.

Key:
[1] = Marsh
[2] = Schnider
[3] = General Model (LBM calculated by weight, age, gender)

In the case of `CC(C)c1cccc(C(C)C)c1O` [Propofol], the V1 ([1]; 70 kg) is given as 15.9 L, the k21 ([1]; 70 kg) is given as 0.055 min⁻¹ and the k31 ([1]; 70 kg) is given as 0.0033 min⁻¹. The keo ([1]; 70 kg) was 0.26 min⁻¹, the V1 ([1]; General Model) was 0.228 L/kg and the k21 ([1]; General Model) was 0.055 min⁻¹. For the same molecule, the k31 ([1]; General Model) was 0.0033 min⁻¹, the keo ([1]; General Model) was 0.26 min⁻¹ and the V1 ([2]; 70 kg, male, height: 170 cm) was 4.27 L. The k13 ([2]; 70 kg, male, height: 170 cm) was 0.196 min⁻¹, the k21 ([2]; 70 kg, male, height: 170 cm) was 0.067 min⁻¹ and the keo ([2]; 70 kg, male, height: 170 cm) was 0.456 min⁻¹. The V1 [2, 3] was 4.27 L, the k13 [2, 3] was 0.196 min⁻¹ and the keo [2, 3] was 0.456 min⁻¹.
